Biological target: T1, Ba/F3 cell EGFR Exon20 ins NPH (Homo sapiens, UniProt P00533, INS773NPH)
T1 construct: expressed in transfected cells; host or cells: Ba/F3
Assay: Ba/F3 cell proliferation suppression, EGFR Exon20 ins NPH
Format: cell-based
Settings: GI50 class; Ba/F3 cell line with NPH inserted at Exon20 of EGFR; 72 hours
Outline: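 After 72 h compound exposure (twelve 3-fold steps, 0.3 nM–50 um final), live cells were measured by CellTiter-Glo luminescence and growth expressed as % of control to derive GI50. Cells were seeded at 3000–5000 per well a day earlier; Ba/F3 medium contained IL-3; three repeats.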

Compound | Ba/F3 (NPH) Activity
C=CC(=O)Nc1cc(Nc2cc(N3OCC[C@@H]3c3cccc(C(F)(F)F)c3)ncn2)c(OC)cc1N1CC[C@H](N2CCOCC2)C1 [compound 507, N-(4-methoxy-2-((S)-3-morpholinopyrolidine-1-yl)-5-((6-((R)-3-(3-(trifluoromethyl)phenyl)isoxazolidine-2-yl)pyrimidine-4-yl)amino)phenyl)acrylamide] | B (50 nM ≤ GI50 < 500 nM)
C=CC(=O)Nc1cc(Nc2cc(N3OCC[C@@H]3c3ccc(F)c(F)c3)ncn2)c(OC)cc1N1CCC(N2CCC(N(C)C)CC2)CC1 [compound 546, N-(5-((6-((R)-3-(3,4-difluorophenyl)isoxazolidine-2-yl)pyrimidine-4-yl)amino)-2-(4-(dimethylamino)-[1,4'-bipiperidine]-1'-yl)-4-methoxyphenyl) acrylamide] | A (GI50 < 50 nM)
C=CC(=O)Nc1cc(Nc2cc(N3OCC[C@@H]3c3cc(F)cc(F)c3)ncn2)c(OC)cc1N1CCC(N2C[C@@H](C)O[C@@H](C)C2)CC1 [Example 266, N-(5-((6-((R)-3-(3,5-difluorophenyl)isoxazolidine-2-yl)pyrimidine-4-yl)amino)-2-(4-((2S,6R)-2,6-dimethylmorpholino)piperidine-1-yl)-4-methoxyphenyl) acrylamide] | A (GI50 < 50 nM)
C=CC(=O)Nc1cc(Nc2cc(N3OCC[C@@H]3c3ccc(F)c(F)c3F)ncn2)c(OC)cc1N1CCC(N2CCN(C)CC2)CC1 [compound 620, N-(4-methoxy-2-(4-(4-methylpiperazine-1-yl)piperidine-1-yl)-5-((6-((R)-3-(2,3,4-trifluorophenyl)isoxazolidine-2-yl)pyrimidine-4-yl)amino)phenyl)acrylamide] | A (GI50 < 50 nM)
C=CC(=O)Nc1cc(Nc2cc(N3OCC[C@@H]3c3cc(F)cc(F)c3)ncn2)c(OC)cc1N1CCC(N2C[C@H](C)N(C3CC3)C[C@H]2C)CC1 [Example 107, N-(2-(4-((2R,5S)-4-cyclopropyl-2,5-dimethylpiperazine-1-yl)piperidine-1-yl)-5-((6-((R)-3-(3,5-difluorophenyl)isoxazolidine-2-yl)pyrimidine-4-yl)amino)-4-methoxyphenyl) acrylamide] | A (GI50 < 50 nM)
C=CC(=O)Nc1cc(Nc2cc(N3OCC[C@@H]3c3cc(F)ccc3F)ncn2)c(OC)cc1N1CC[C@@H](N(C)C)C1 [compound 848, N-(5-((6-(2,5-((R)-3-difluorophenyl)isoxazolidine-2-yl)pyrimidine-4-yl)amino)-2-((R)-3-(dimethylamino)pyrolidine-1-yl)-4-methoxyphenyl) acrylamide] | A (GI50 < 50 nM)
C=CC(=O)Nc1cc(Nc2cc(N3OCC[C@@H]3c3ccc(F)c(Cl)c3)ncn2)c(OC)cc1N1CCC(N2CCN(C(C)=O)CC2)CC1 [compound 763, N-(2-(4-(4-acetylpiperazine-1-yl)piperidine-1-yl)-5-((6-((R)-3-(3-chloro-4-fluorophenyl)isoxazolidine-2-yl)pyrimidine-4-yl)amino)-4-methoxyphenyl) acrylamide] | A (GI50 < 50 nM)
C=CC(=O)Nc1cc(Nc2cc(N3OCC[C@@H]3c3cccc(OC)c3)ncn2)c(OC)cc1N1CC[C@H](N2CCOCC2)C1 [compound 778, N-(4-methoxy-5-((6-((R)-3-(3-methoxyphenyl)isoxazolidine-2-yl)pyrimidine-4-yl)amino)-2-((S)-3-morpholinopyrolidine-1-yl)phenyl)acrylamide] | B (50 nM ≤ GI50 < 500 nM)
C=CC(=O)Nc1cc(Nc2cc(N3OCC[C@@H]3c3ccc(F)c(Cl)c3)ncn2)c(OC)cc1N1CCC(N2CCN(C)[C@@H](C)C2)CC1 [compound 900, N-(5-((6-((R)-3-(3-chloro-4-fluorophenyl)isoxazolidine-2-yl)pyrimidine-4-yl)amino)-2-(4-((S)-3,4-dimethylpiperazine-1-yl)piperidine-1-yl)-4-methoxyphenyl) acrylamide] | A (GI50 < 50 nM)
C=CC(=O)Nc1cc(Nc2cc(N3OCC[C@@H]3c3cc(F)cc(Cl)c3F)ncn2)c(OC)cc1N1CCN(C2CC2)CC1 [compound 939, N-(5-((6-((R)-3-(3-chloro-2,5-difluorophenyl)isoxazolidine-2-yl)pyrimidine-4-yl)amino)-2-(4-cyclopropylpiperazine-1-yl)-4-methoxyphenyl) acrylamide] | B (50 nM ≤ GI50 < 500 nM)
C=CC(=O)Nc1cc(Nc2cc(N3OCC[C@@H]3c3ccc(Cl)cc3)ncn2)c(OC)cc1N1CCC(N2CCN(C3CC3)CC2)CC1 [Example 58, N-(5-((6-((R)-3-(4-chlorophenyl)isoxazolidine-2-yl)pyrimidine-4-yl)amino)-2-(4-(4-cyclopropylpiperazine-1-yl)piperidine-1-yl)-4-methoxyphenyl) acrylamide] | A (GI50 < 50 nM)
C=CC(=O)Nc1cc(Nc2cc(N3OCC[C@@H]3c3ccc(Cl)c(Cl)c3)ncn2)c(OC)cc1N1CCC(N2C[C@@H]3C[C@H]2CO3)CC1 [compound 688, N-(2-(4-((1S,4S)-2-oxa-5-azabicyclo[2.2.1]heptane-5-yl)piperidine-1-yl)-5-((6-((R)-3-(3,4-dichlorophenyl)isoxazolidine-2-yl)pyrimidine-4-yl)amino)-4-methoxyphenyl) acrylamide] | A (GI50 < 50 nM)
C=CC(=O)Nc1cc(Nc2cc(N3OCC[C@@H]3c3ccc(F)cc3F)ncn2)c(OC)cc1N1CCC(N(C)C)CC1 [compound 384, N-(5-((6-((R)-3-(2,4-difluorophenyl)isoxazolidine-2-yl)pyrimidine-4-yl)amino)-2-(4-(dimethylamino)piperidine-1-yl)-4-methoxyphenyl) acrylamide] | A (GI50 < 50 nM)
C=CC(=O)Nc1cc(Nc2cc(N3OCC[C@@H]3c3cccc(Cl)c3C)ncn2)c(OC)cc1N1CCC(N2C[C@@H](C)O[C@@H](C)C2)CC1 [compound 528, N-(5-((6-((R)-3-(3-chloro-2-methylphenyl)isoxazolidine-2-yl)pyrimidine-4-yl)amino)-2-(4-((2S,6R)-2,6-dimethylmorpholino)piperidine-1-yl)-4-methoxyphenyl) acrylamide] | A (GI50 < 50 nM)
C=CC(=O)Nc1cc(Nc2cc(N3OCC[C@@H]3c3cc(F)ccc3F)ncn2)c(OC)cc1N1CCC(N2CCN(CC)CC2)CC1 [compound 767, N-(5-((6-((R)-3-(2,5-difluorophenyl)isoxazolidine-2-yl)pyrimidine-4-yl)amino)-2-(4-(4-ethylpiperazine-1-yl)piperidine-1-yl)-4-methoxyphenyl) acrylamide] | A (GI50 < 50 nM)
C=CC(=O)Nc1cc(Nc2cc(N3OCC[C@@H]3c3cccc(Cl)c3Cl)ncn2)c(OC)cc1N1CCC(N(C)C)CC1 [compound 476, N-(5-((6-((R)-3-(2,3-dichlorophenyl)isoxazolidine-2-yl)pyrimidine-4-yl)amino)-2-(4-(dimethylamino)piperidine-1-yl)-4-methoxyphenyl) acrylamide] | A (GI50 < 50 nM)
C=CC(=O)Nc1cc(Nc2cc(N3OCC[C@H]3c3c(F)cccc3F)ncn2)c(OC)cc1N1CCC(N2CCN(C)CC2)CC1 [compound 896, N-(5-((6-((S)-3-(2,6-difluorophenyl)isoxazolidine-2-yl)pyrimidine-4-yl)amino)-4-methoxy-2-(4-(4-methylpiperazine-1-yl)piperidine-1-yl)phenyl)acrylamide] | C (500 nM ≤ GI50 < 5000 nM)
C=CC(=O)Nc1cc(Nc2cc(N3OCC[C@@H]3c3ccc(F)c(Cl)c3)ncn2)c(OC)cc1N1C[C@@H]2C[C@H]1CO2 [compound 902, N-(2-((1S,4S)-2-oxa-5-azabicyclo [2.2.1]heptane-5-yl)-5-((6-((R)-3-(3-chloro-4-fluorophenyl)isoxazolidine-2-yl)pyrimidine-4-yl)amino)-4-methoxyphenyl) acrylamide] | A (GI50 < 50 nM)
C=CC(=O)Nc1cc(Nc2cc(N3OCC[C@@H]3c3cc(F)ccc3F)ncn2)c(OC)cc1N1CCC(N2C[C@H](C)N(C3CC3)C[C@H]2C)CC1 [Example 173, N-(2-(4-((2R,5S)-4-cyclopropyl-2,5-dimethylpiperazine-1-yl)piperidine-1-yl)-5-((6-((R)-3-(2,5-difluorophenyl)isoxazolidine-2-yl)pyrimidine-4-yl)amino)-4-methoxyphenyl) acrylamide] | A (GI50 < 50 nM)
C=CC(=O)Nc1cc(Nc2cc(N3OCC[C@@H]3c3cccc(Cl)c3F)ncn2)c(OC)cc1N1CCC(N2CCC3(CC2)CC3)CC1 [compound 355, N-(2-(4-(6-azaspiro[2.5]octan-6-yl)piperidine-1-yl)-5-((6-((R)-3-(3-chloro-2-fluorophenyl)isoxazolidine-2-yl)pyrimidine-4-yl)amino)-4-methoxyphenyl) acrylamide] | A (GI50 < 50 nM)
C=CC(=O)Nc1cc(Nc2cc(N3OCC[C@@H]3c3ccc(F)c(Cl)c3F)ncn2)c(OC)cc1N1CCN(CC)CC1 [compound 600, N-(5-((6-((R)-3-(3-chloro-2,4-difluorophenyl)isoxazolidine-2-yl)pyrimidine-4-yl)amino)-2-(4-ethylpiperazine1-yl)-4-methoxyphenyl) acrylamide] | A (GI50 < 50 nM)
C=CC(=O)Nc1cc(Nc2cc(N3OCC[C@@H]3Cc3cccc(Cl)c3Cl)ncn2)c(OC)cc1N(C)CCN(C)C [compound 982, N-(5-((6-((S)-3-(2,3-dichlorobenzyl)isoxazolidine-2-yl)pyrimidine-4-yl)amino)-2-((2-(dimethylamino)ethyl)(methyl)amino)-4-methoxyphenyl) acrylamide] | A (GI50 < 50 nM)
C=C(F)C(=O)Nc1cc(Nc2cc(N3OCC[C@@H]3c3cc(F)cc(F)c3)ncn2)c(OC)cc1N1CCC(N2CCN(C3CC3)CC2)CC1 [Example 120, N-(2-(4-(4-cyclopropylpiperazine-1-yl)piperidine-1-yl)-5-((6-((R)-3-(3,5-difluorophenyl)isoxazolidine-2-yl)pyrimidine-4-yl)amino)-4-methoxyphenyl)-2-fluoroacrylamide] | C (500 nM ≤ GI50 < 5000 nM)
